IC50 data for 40 molecules are collected here from patent US20110263610A1, “COMPOUNDS AND COMPOSITIONS AS ITPKB INHIBITORS” (IRM LLC, priority 2008, published 2011).

The target of the first experiment is T1, ITPKb (Mus musculus, UniProt B2RXC2).
T1 construct: murine ITPKb residues 640-942; MGSDKIHHHHHH (His6 tag from MH4 plasmid) (N); made in house; host or cells: Escherichia coli HK100
T1 sequence (B2RXC2 640-942): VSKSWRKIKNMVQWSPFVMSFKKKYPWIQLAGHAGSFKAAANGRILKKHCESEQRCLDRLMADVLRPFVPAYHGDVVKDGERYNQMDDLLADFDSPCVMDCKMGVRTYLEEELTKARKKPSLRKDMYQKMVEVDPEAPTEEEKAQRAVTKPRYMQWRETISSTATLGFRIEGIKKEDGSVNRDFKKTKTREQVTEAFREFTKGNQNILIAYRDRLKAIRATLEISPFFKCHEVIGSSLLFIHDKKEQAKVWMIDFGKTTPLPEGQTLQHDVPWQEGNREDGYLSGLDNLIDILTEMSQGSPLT
Kind of experiment: Biochemical measurement of ITPKb activity (Kinase-Glo ATP depletion assay); inhibiting the phosphorylation of IP3 to IP4. On the set-up: species or system murine. The conditions noted are these: Table 1; inhibiting the phosphorylation of IP3 to IP4; read-out: IC50. How it is done: Compounds of the present invention are assayed to measure their capacity to inhibit ITPKb according to the following assays.
The DNA sequence encoding murine ITPKb residues 640-942 is amplified from a full-length construct in mammalian expression vector pKDNZ by PCR. The 3′-primer incorporates a stop codon and an overhanging PacI site. The product is digested with Pad before being ligated into the MH4 plasmid which has been prepared by digestion with PmlI and PacI. Cloning into the MH4 plasmid adds the sequence MGSDKIHHHHHH to the N-terminus of the translated region. Mutant enzymes are made by site-directed mutagenesis using the Stratagene Quikchange kit.
ITPKb is expressed in the HK100 strain of Escherichia coli. Typically, a 4 L batch of cells is grown in LB with […] ampicillin to 0.5 A600 at 30 degrees C., before induction with 0.02% L-arabinose for 6 hours. Cells are harvested by centrifugation, and pellets are resuspended in 50 mL of 50 mM Tris (pH 8), 100 mM NaCl, 1 mM TCEP, and 0.1 mg/mL lysozyme, with 1 Complete protease inhibitor tablet (Roche). Cells are disrupted by sonication, and debris is removed by centrifugation for 40 minutes at 35000 g.
Initial purification is performed using three nickel-Sepharose Hi-Trap HP 1 mL columns (Amersham) connected in series. After application of the pellet supernatants, the bound material is washed with 20 mM Tris (pH 8.0), 20 mM imidazole, 10% glycerol (v/v), and 1 mM TCEP before elution with an imidazole gradient up to 200 mM.
Fractions containing ITPKb are identified by SDS-PAGE, and the pure fractions are concentrated and buffer exchanged using centriprep 20 15 kDa columns into 20 mM Tris (pH 8), 200 mM KCl, 5 mM MgCl2, 0.5 mM DTT, 10% glycerol, 1 μM IP3, and 20 μM ATP to a final protein concentration of 7 mg/mL.
ITPKb activity is determined using the Kinase-Glo (Promega) ATP depletion assay. The assay reaction buffer consists of 50 mM Tris (pH 8.0), 100 mM NaCl, 1 mM DTT, 10% glycerol, 5 mM MgCl2, 1 μM ATP, and 10 μM IP3 (Alexis Biochemicals). 50 nl of inhibitor is then added to each 40 μL reaction followed by a 10 μL addition of purified ITPKb (final concentration of 60 nM). The reaction mixture is incubated for 60 minutes at room temperature and stopped by the addition of an equal volume of kinase-glo reagent (Promega). Luminescence is measured using a Molecular Devices Acquest instrument.
Turning to `C[C@@H]1CN(Cc2c[nH]nc2-c2ccc3cnccc3c2)CCN1c1ccc(C(F)(F)F)cn1` [Example 20], the IC50 was 11 nM.
On the same count and under the same terms, then `C[C@@H]1CN(Cc2c[nH]nc2-c2ccc(C#N)c(=O)[nH]2)CCN1c1ccc(C(F)(F)F)cn1` [Example 21], with 49 nM; and `FC(F)(F)c1ccc(N2CCN(Cc3c[nH]nc3-c3cccs3)CC2)nc1` [Example 22], with 4320 nM.
Still for that read-out and setting: next, `Cc1nc(-c2n[nH]cc2CN2CCN(c3ccc(C(F)(F)F)cn3)[C@H](C)C2)[nH]c1C` [Example 25]: over 10000 nM; `C[C@@H]1CN(Cc2c[nH]nc2-c2nc3c([nH]2)CCCC3)CCN1c1ccc(C(F)(F)F)cn1` [Example 26]: 5010 nM; `C[C@@H]1CN(Cc2c[nH]nc2-c2nc3cc(F)ccc3[nH]2)CCN1c1ccc(C(F)(F)F)cn1` [Example 27]: 9800 nM.
Regarding `C[C@@H]1CN(Cc2c[nH]nc2-c2nc3cc(C#N)ccc3[nH]2)CCN1c1ccc(C(F)(F)F)cn1` [Example 28], the IC50 was 2450 nM.
Same read-out and setting: then `N#Cc1c[nH]c(-c2n[nH]cc2CN2CCN(c3ccc(C(F)(F)F)cn3)[C@H](C(F)(F)F)C2)c1` [Example 29], with 9 nM.
As to `C[C@@H]1CN(Cc2c[nH]nc2C(=O)Nc2nc[nH]c2C#N)CCN1c1ccc(C(F)(F)F)cn1` [Example 30], the half-inhibitory concentration (IC50) is over 10000 nM.
The same measure, in the same setting: next, `C[C@@H]1CN(Cc2c[nH]nc2C(=O)Nc2cc(-c3ccco3)n[nH]2)CCN1c1ccc(C(F)(F)F)cn1` [Example 31]: 5330 nM.
Same read-out and setting: then `Cc1cc(NC(=O)c2n[nH]cc2CN2CCN(c3ccc(C(F)(F)F)cn3)[C@H](C)C2)n(CCN(C)C)n1` [Example 32], with 6190 nM.
The same measure, in the same setting: then `C[C@@H]1CN(Cc2c[nH]nc2C(=O)Nc2n[nH]cc2C#N)CCN1c1ccc(C(F)(F)F)cn1` [Example 33], with over 10000 nM; and `C[C@@H]1CN(Cc2c[nH]nc2C(=O)N2CC(O)C2)CCN1c1ccc(C(F)(F)F)cn1` [Example 34], with over 10000 nM; and `C[C@@H]1CN(Cc2c[nH]nc2C(=O)N2CCC(O)C2)CCN1c1ccc(C(F)(F)F)cn1` (stereo partly shown) [Example 35], with over 10000 nM.
`C[C@@H]1CN(Cc2c[nH]nc2C(=O)N2CCC(O)CC2)CCN1c1ccc(C(F)(F)F)cn1` [Example 36]: the IC50 is over 10000 nM.
Still for that read-out and setting: next, `COC(=O)c1ccc(-c2n[nH]cc2CN2CCN(c3ccc(C(F)(F)F)cn3)[C@H](C)C2)o1` [Example 37]: 984 nM; `C[C@@H]1CN(Cc2c[nH]nc2-c2ccc(C(=O)O)o2)CCN1c1ccc(C(F)(F)F)cn1` [Example 38]: 435 nM; `C[C@@H]1CN(Cc2c[nH]nc2-c2ccc(C(N)=O)o2)CCN1c1ccc(C(F)(F)F)cn1` [Example 39]: 8 nM.
As for `C[C@@H]1CN(Cc2c[nH]nc2-c2ccnc3[nH]ccc23)CCN1c1ccc(C(F)(F)F)cn1` [Example 40], the IC50 was found to be 478 nM.
Still for that read-out and setting: then `C[C@@H]1CN(Cc2c[nH]nc2-c2cc(C(=O)N(C)C)c[nH]2)CCN1c1ccc(C(F)(F)F)cn1` [Example 41], with 85 nM.
Still for that read-out and setting: next, `C[C@@H]1CN(Cc2c[nH]nc2-c2cc(C(=O)NCCO)c[nH]2)CCN1c1ccc(C(F)(F)F)cn1` [Example 42]: 14 nM; `CC(O)CNC(=O)c1c[nH]c(-c2n[nH]cc2CN2CCN(c3ccc(C(F)(F)F)cn3)[C@H](C)C2)c1` (stereo partly shown) [Example 43]: 14 nM.
Same read-out and setting: next, `C[C@@H]1CN(Cc2c[nH]nc2-c2c[nH]c3ncccc23)CCN1c1ccc(C(F)(F)F)cn1` [Example 44]: 182 nM; `C[C@@H]1CN(Cc2c[nH]nc2-c2cc(C(=O)N[C@@H](C)CO)c[nH]2)CCN1c1ccc(C(F)(F)F)cn1` [Example 45]: 6 nM.
Regarding `C[C@@H]1CN(Cc2c[nH]nc2/C=C2\NC(=S)NC2=O)CCN1c1ccc(C(F)(F)F)cn1` [Example 46], the IC50 was over 10000 nM.
On to `CC(=O)N1CC=C(c2n[nH]cc2CN2CCN(c3ccc(C(F)(F)F)cn3)[C@H](C)C2)CC1` [Example 47], for which the IC50 is 66 nM.
On the same count and under the same terms, next, `C[C@@H]1CN(Cc2c[nH]nc2C2CCNCC2)CCN1c1ccc(C(F)(F)F)cn1` [Example 48]: 431 nM.
The same measure, in the same setting: then `C[C@@H]1CN(Cc2c[nH]nc2C2CCN(C=O)CC2)CCN1c1ccc(C(F)(F)F)cn1` [Example 49], with 241 nM.
On the same count and under the same terms, then `C[C@@H]1CN(Cc2c[nH]nc2/C=C2\NC(=N)NC2=O)CCN1c1ccc(C(F)(F)F)cn1` [Example 50], with 99 nM; and `NC(=O)c1c[nH]c(-c2n[nH]cc2CN2CCN(c3ccc(C(F)(F)F)cn3)[C@H](C(F)(F)F)C2)c1` [Example 51], with 2 nM; and `C[C@@H]1CN(Cc2c[nH]nc2-c2cc(C(=O)O)co2)CCN1c1ccc(C(F)(F)F)cn1` [Example 52], with 1040 nM.
On to `C[C@@H]1CN(Cc2c[nH]nc2-c2cc(C(N)=O)co2)CCN1c1ccc(C(F)(F)F)cn1` [Example 53], for which the IC50 came to 78 nM.
On to `C[C@@H]1CN(Cc2c[nH]nc2C2=CCN(C(=O)CCO)CC2)CCN1c1ccc(C(F)(F)F)cn1` [Example 54], for which the IC50 came to 80 nM.

The experiment is the same for the next values; noted with them: Table 2; inhibiting the phosphorylation of IP3 to IP4; read-out: IC50.
In the case of `C[C@@H]1CN(Cc2c[nH]nc2-c2nc(C#N)c[nH]2)CCN1c1ccc(C(F)(F)F)cn1` [Example 13, (R)-2-(4-((3-methyl-4-(5-(trifluoromethyl)pyridin-2-yl)piperazin-1-yl)methyl)-1H-pyrazol-3-yl)-1H-imidazole-4-carbonitrile], the IC50 worked out at 102 nM.
Take `C[C@@H]1CN(Cc2c[nH]nc2-c2nc(C(N)=O)c[nH]2)CCN1c1ccc(C(F)(F)F)cn1` [Example 14, (R)-2-(4-((3-methyl-4-(5-(trifluoromethyl)pyridin-2-yl)piperazin-1-yl)methyl)-1H-pyrazol-3-yl)-1H-imidazole-4-carboxamide]: the IC50 was found to be 24 nM.
The same measure, in the same setting: then `C[C@@H]1CN(Cc2c[nH]nc2-c2nc(-c3ccccc3)c[nH]2)CCN1c1ccc(C(F)(F)F)cn1` [Example 15, (R)-2-methyl-4-((3-(4-phenyl-1H-imidazol-2-yl)-1H-pyrazol-4-yl)methyl)-1-(5-(trifluoromethyl)pyridin-2-yl)piperazine], with 1230 nM.
For the molecule `C[C@@H]1CN(Cc2c[nH]nc2-c2nc3cnccc3[nH]2)CCN1c1ccc(C(F)(F)F)cn1` [Example 16, (R)-2-(4-((3-methyl-4-(5-(trifluoromethyl)pyridin-2-yl)piperazin-1-yl)methyl)-1H-pyrazol-3-yl)-1H-imidazo[4,5-c]pyridine], the IC50 stood at 975 nM.
The same measure, in the same setting: then `C[C@@H]1CN(Cc2c[nH]nc2C=C2NC(=O)NC2=O)CCN1c1ccc(C(F)(F)F)cn1` [Example 17, R-5-((4-((3-methyl-4-(5-(trifluoromethyl)pyridin-2-yl)piperazin-1-yl)methyl)-1H-pyrazol-3-yl)methylene)imidazolidine-2,4-dione], with 531 nM; and `C[C@@H]1CN(Cc2c[nH]nc2C(=O)Nc2ccncc2)CCN1c1ccc(C(F)(F)F)cn1` [Example 18, (R)-4-((3-methyl-4-(5-(trifluoromethyl)pyridin-2-yl)piperazin-1-yl)methyl)-N-(pyridin-4-yl)-1H-pyrazole-3-carboxamide], with 449 nM.
On the same count and under the same terms, next, `C[C@@H]1CN(Cc2n[nH]nc2-c2ccc(C#N)cc2)CCN1c1ccc(C(F)(F)F)cc1` [Example 19, (R)-4-(5-((3-methyl-4-(4-(trifluoromethyl)phenyl)piperazin-1-yl)methyl)-2H-1,2,3-triazol-4-yl)benzonitrile]: 40 nM.
